Key:
Format in all cases: cell-based
[1] = tested on: Candida albicans biofilms; assay: Eradication of mature Candida albicans biofilms (xCELLigence); details: mature biofilms at 24 h; micafungin 1.5 μg/ml plus zymolyase 171 μg/ml, or 0.15% hydrogen peroxide
Description: Effect of platinum and mesoporous silica nanoparticles on the eradication of mature Candida albicans biofilms. C. albicans biofilms were cultured in the micro dilution plates of the xCELLigence system for 24 h and then treated with a combination of free micafungin together with zymolyase (an enzyme with the ability to disperse biofilm-forming cells), indicated in the legend as MZ, or with nanoparticles loaded with the antifungal micafungin and anchored with the enzyme zymolyase. […] The black curve represents the growth of the untreated biofilm and the black arrow indicates the time when the treatment was added.

[2] = tested on: endodontic biofilms from root canals; assay: Disruption of endodontic biofilms (xCELLigence); details: 16 μg/ml in suspension, added after 6 h of growth
Description: FIG. 4.1. Disruption of endodontic biofilms using platinum and silica nanoparticles loaded with metronidazole. Endodontic biofilms were cultured in the xCELLigence system and after 6 hours of growth they were treated with 1 mg/ml of nanoparticles containing 2.25 μg of metronidazole, or with metronidazole in suspension at a concentration of 16 μg/ml, and compared to the untreated control (black curve). The black arrow indicates the time when the biofilm was treated. The biofilm comes from root canal samples extracted during a root canal and contains a complex microbial community formed by dozens of bacteria that cause this infection. Endodontic biofilms from root canals were collected with sterile files and placed in 1 ml of VMG (Ill) transport medium ([…] et al., 1993). Subsequently, the samples were transported to the laboratory where they were subjected to stirring for 3 minutes. Then, the files were extracted, the samples were centrifuged for 5 min at 10,000 rpm and the supernatant was discarded. The obtained pellet was resuspended with 1 ml of BHI (brain-heart infusion) culture medium and the samples were cultured in micro dilution plates of the xCELLigence impedance measurement system for 6 h, following the protocol described by Mira et al. 2019 (J Oral Microbiol). […]

[3] = tested on: polymicrobial oral biofilms (dental plaque); assay: Effect on preformed oral biofilms derived from saliva (xCELLigence); details: 16 μg/ml, two donors (A, B)
Description: FIG. 5.1. Effect of platinum and mesoporous silica nanoparticles loaded with metronidazole on preformed oral biofilms derived from saliva samples of two independent donors (A and B). The biofilms were grown in the xCELLigence system for 6 hours, and subsequently treated with metronidazole in suspension (concentration of 16 μg/ml) or with nanoparticles loaded with metronidazole (1 mg/ml of nanoparticles containing 2.25 μg metronidazole). The black arrows indicate the time when the treatment was added, whereas the black curves represent the untreated control. The biofilm comes from saliva samples and contains a complex microbial community made up of dozens of dental plaque-forming bacteria. To investigate the effect of platinum (Pt) and mesoporous silica nanoparticles on polymicrobial oral biofilms (dental plaque), biofilms derived from the saliva of two independent donors were cultured in the xCELLigence system for 6 hours, following the protocol described by Mira et al. 2019 (J Oral Microbiol). Subsequently, free metronidazole (at a concentration of 16 μg/ml), or nanoparticles with metronidazole (1 mg/ml of nanoparticles containing 2.25 μg of metronidazole) was added to evaluate the effect on said biofilms. […]

OO [hydrogen peroxide]
effect on biofilm formation [1]: induced the formation of biofilms

Cc1ncc([N+](=O)[O-])n1CCO [metronidazole]
more biofilm formation compared to the untreated control [2]: up to 15% | effect on salivary biofilm growth [3]: induction of biofilm growth

— patent US20250352486A1, “NANOPARTICLES FOR USE IN THE TREATMENT OF INFECTIONS CAUSED BY BIOFILMS” (Universitat Politècnica De València, priority 2022, published 2025)
